Experimental data: patent publication US9487489B2, “Halogen-substituted pyrazole derivatives as pest-control agents” (BAYER CROPSCIENCE AKTIENGESELLSCHAFT, priority 2013, dated 2016)

How the values were obtained:
[1] = tested on: greenhouse red spider mite (Tetranychus urticae); assay: Tetranychus urticae spray test, OP-resistant (TETRUR); assay type: in vivo; settings: bean leaf discs, after 6 days
Method in brief: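 Bean leaf discs carrying all stages of OP-resistant Tetranychus urticae were sprayed with compound formulated in acetone/dimethylformamide and diluted in water with 1000 ppm alkylaryl polyglycol ether emulsifier. Mortality (% efficacy, 100% = all mites killed) scored after 6 days.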

[2] = tested on: adult houseflies (Musca domestica); assay: Musca domestica test (MUSCDO); assay type: in vivo; settings: application rate 100 ppm; after 2 days
Method in brief: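 Compound dissolved in DMSO and diluted with water to the test concentration, applied with sugar solution on a sponge; 10 adult houseflies per vessel. Mortality scored after 2 days as % kill (100% all dead, 0% none).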

[3] = tested on: engorged adult female cattle ticks (Boophilus microplus); assay: Boophilus microplus injection test (BOOPMI Inj); assay type: in vivo; settings: application rate 20 μg/animal; injection into abdomen; assessed after 7 days
Method in brief: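 DMSO solution of compound (1 μl) injected into the abdomen of 5 engorged adult female ticks, which are then held in a climate-controlled room. After 7 days, efficacy is scored from laying of fertile eggs, with unclear eggs kept until larval hatch (~42 days); 100% means no fertile eggs, 0% all fertile.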

[4] = tested on: caterpillars of the armyworm (Spodoptera frugiperda); assay: Spodoptera frugiperda spray test (SPODFR); assay type: in vivo; settings: maize leaf discs, after 7 days
Method in brief: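 Maize leaf discs sprayed with compound in acetone/DMF with alkylaryl polyglycol ether emulsifier (1000 ppm) in water, dried, then infested with armyworm caterpillars. Mortality (%) scored after 7 days; 100% = all caterpillars killed, 0% = none killed.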

[5] = tested on: green peach aphid (Myzus persicae); assay: Myzus persicae spray test (MYZUPE); assay type: in vivo; settings: Chinese cabbage leaf discs, after 6 days
Protocol: G. Myzus persicae-spray Test (MYZUPE)
Solvents: 78 parts by weight of acetone
• 1.5 parts by weight of dimethylformamide Emulsifier: alkylaryl polyglycol ether
To produce a suitable preparation of active compound, 1 part by weight of active compound is dissolved using the stated parts by weight of solvent and made up with water comprising an emulsifier concentration of 1000 ppm until the desired concentration is reached. To produce further test concentrations, the preparation is diluted with emulsifier-containing water.
Discs of Chinese cabbage leaves (Brassica pekinensis) infested by all stages of the green peach aphid (Myzus persicae) are sprayed with an active compound preparation of the desired concentration.
After 6 days, the efficacy in % is determined 100% here means that all of the aphids have been killed; 0% means that no aphids have been killed.

[6] = tested on: larvae of the mustard beetle (Phaedon cochleariae); assay: Phaedon cochleariae spray test (PHAECO); assay type: in vivo; settings: Chinese cabbage leaf discs, after 7 days
Method in brief: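 Compound dissolved in acetone/dimethylformamide with alkylaryl polyglycol ether emulsifier, made up in water containing 1000 ppm emulsifier, then diluted to test concentrations and sprayed against mustard beetle larvae. Efficacy (% larvae killed) scored after 7 days.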

[7] = tested on: L1 larvae of the Australian sheep blowfly (Lucilia cuprina); assay: Lucilia cuprina test (LUCICU); assay type: in vivo; settings: application rate 100 ppm; after 2 days
Method in brief: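 About 20 L1 larvae placed in a vessel with minced horsemeat plus compound (DMSO concentrate diluted with water to the desired concentration). Kill in % scored after 2 days, 100% meaning all larvae dead.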

[8] = tested on: adult cat fleas (Ctenocephalides felis); assay: Ctenocephalides felis oral test (CTECFE); assay type: in vivo; settings: application rate 100 ppm in citrated cattle blood; after 2 days
Method in brief: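 About 20 unfed adult cat fleas fed through parafilm membrane on citrated cattle blood containing compound (DMSO stock diluted in blood to test concentration). Kill % scored after 2 days (100% = all fleas dead).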

[9] = tested on: adult cat fleas (Ctenocephalides felis); assay: Ctenocephalides felis in vitro contact test with adult cat fleas (T1); settings: after 48 h
Method in brief: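 Test compound was dissolved in acetone p.a. (9 mg per 1 ml) and diluted as needed. 250 μl was spread evenly over the inner walls and floor of a 25 ml test tube by rotating on an orbital shaker for 2 h at 30 rpm. Once the solvent evaporated, 5-10 adult Ctenocephalides felis were added. Tubes were capped with a perforated plastic lid and kept horizontal at room temperature and ambient humidity.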

[10] = tested on: adult dog ticks (Rhipicephalus sanguineus); assay: Rhipicephalus sanguineus in vitro contact test with adult brown dog ticks (T2); settings: after 48 h
Method in brief: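 Acetone solutions coated onto test tube walls and floor, giving 5 μg/cm^2 at 900 ppm. Five to ten adult ticks held per tube in the dark at room temperature for 48 h, then heated at 45-50° C for up to 5 min; efficacy is the percentage of dead or moribund ticks unable to climb away.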

[11] = logP determination by HPLC on a reversed-phase column (C18), EEC Directive 79/831 Annex V.A8; assay type: physicochemical; settings: HPLC on reversed-phase column (C18), acetonitrile/water with formic acid, EEC Directive 79/831 Annex V.A8
Method in brief: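 Retention on a C18 reversed-phase column (Zorbax Eclipse Plus, 1.8 micron) was used, eluting with acetonitrile/water, each containing formic acid. The gradient ran from 10% to 95% acetonitrile over 4.25 min, then held 1.25 min, at 55° C and 2.0 ml/min, with MS detection.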

SMILES | efficacy in % ([1]; application rate 500 g/ha) | efficacy (kill in %) [2] | efficacy (laying of fertile eggs) [3] | efficacy in % ([4]; application rate 500 g/ha) | efficacy in % ([5]; application rate 500 g/ha) | efficacy in % ([6]; application rate 500 g/ha) | efficacy (kill in %) [7] | efficacy (kill in %) [8] | efficacy (dead or moribund fleas) ([9]; application rate 1 μg/cm^2) | efficacy (dead or moribund fleas) ([9]; application rate 5 μg/cm^2) | efficacy (dead or moribund ticks) ([10]; application rate 1 μg/cm^2) | efficacy (dead or moribund ticks) ([10]; application rate 5 μg/cm^2) | efficacy in % ([1]; application rate 100 g/ha) | logP [11] | efficacy in % ([4]; application rate 100 g/ha) | efficacy in % ([5]; application rate 100 g/ha) | efficacy in % ([6]; application rate 100 g/ha)
Cn1nc(C(F)(F)C(F)(F)F)c(C(F)(F)F)c1-n1cc(-c2cccc(C(=O)NC3(C#N)CC3)c2F)cn1 [Ic-40] | 100% | 100% | 100% | 100% | 100% | 100% | 100% | 100% |  |  |  |  |  |  |  |  | 
Cn1nc(C(F)(F)C(F)(F)F)c(C(F)(F)F)c1-n1cc(-c2cncc(C(=O)NC3CC3)c2)cn1 [Ic-70] |  | 100% | 100% | 100% | 90% | 100% | 100% | 100% | 100% | 100% | 100% | 100% |  |  |  |  | 
CSCCNC(=O)c1cc(-c2cnn(-c3c(C(F)(F)F)c(C(F)(F)C(F)(F)F)nn3C)c2)ccc1Cl [Ic-167] | 100% |  |  | 100% | 90% | 100% |  |  | 100% | 100% | 100% | 100% |  |  |  |  | 
Cn1nc(C(F)(F)C(F)(F)F)c(C(F)(F)F)c1-n1cc(-c2cc(F)c(F)c(C(=O)NC3CC3)c2)cn1 [Ic-55] | 80% | 100% | 100% | 100% | 100% | 100% | 100% | 100% |  |  |  |  |  |  |  |  | 
Cn1nccc1NC(=O)c1cc(-c2cnn(-c3c(C(F)(F)F)c(C(F)(F)C(F)(F)F)nn3C)c2)ccc1Cl [Ic-163] | 100% | 90% | 100% | 100% | 90% | 100% | 100% | 100% | 100% | 100% | 100% |  |  |  |  |  | 
Cn1nc(C(F)(F)C(F)(F)F)c(C(F)(F)F)c1-n1cc(-c2ccc(S(C)(=O)=O)c(C(=O)NC3CC3)c2)cn1 [Ic-190] |  |  |  |  |  |  |  |  |  |  |  |  | 100% | 3.35 | 100% | 100% | 100%
Cn1nc(C(F)(F)C(F)(F)F)c(C(F)(F)F)c1-n1cc(-c2ccc(Cl)c(C(=O)NC3CCCC3)c2)cn1 [Ic-141] | 100% |  |  | 100% | 100% | 100% |  |  | 100% | 100% | 80% | 100% |  |  |  |  | 
Cn1nc(C(F)(F)F)c(C(F)(F)F)c1-n1cc(-c2ccc(Cl)c(C(=O)NC3CC3)c2)cn1 [Ic-126] |  |  |  |  |  |  |  |  |  |  |  |  | 100% | 3.42 | 100% | 100% | 100%
CCOC1CC1NC(=O)c1cc(-c2cnn(-c3c(C(F)(F)F)c(C(F)(F)C(F)(F)F)nn3C)c2)ccc1Cl (stereo not drawn) [Ic-186] | 90% |  |  | 100% |  | 100% |  |  |  |  |  |  |  | 3.73 |  | 90% | 
Cc1ccc(-c2cnn(-c3c(C(F)(F)F)c(C(F)(F)C(F)(F)F)nn3C)c2)cc1C(=O)NC1(C#N)CC1 [Ic-129] |  |  |  |  |  |  |  |  |  |  |  |  | 100% | 3.73 | 100% | 90% | 100%
Cn1nc(C(F)(F)C(F)(F)F)c(C(F)(F)F)c1-n1cc(-c2ccc(Cl)c(C(=O)NC3(C4CC4)CC3)c2)cn1 [Ic-188] | 100% |  |  | 100% | 100% | 100% |  |  |  |  |  |  |  | 4.43 |  |  | 
Cn1nc(C(F)(F)C(F)(F)F)c(C(F)(F)F)c1-n1cc(-c2ccc(Cl)c(C(=S)NC3CC3)c2)cn1 [Ic-132] |  |  |  |  |  |  |  |  |  |  |  |  | 100% | 4.34 | 100% | 90% | 100%
Cn1nc(C(F)(F)C(F)(F)F)c(C(F)(F)F)c1-n1cc(-c2cc(C(=O)NC3CC3)ccc2F)cn1 [Ic-41] | 100% | 100% | 100% | 100% | 100% | 100% | 100% | 100% | 100% | 100% |  |  |  |  |  |  | 
CON=Cc1ccc(-c2cnn(-c3c(C(F)(F)F)c(C(F)(F)C(F)(F)F)nn3C)c2)cc1C(=O)NC1CC1 (mixture of isomers) [Ic-118] |  |  |  |  |  |  |  |  | 100% | 100% |  |  | 100% | 3.99 | 100% | 100% | 100%
Cn1nc(C(F)(F)C(F)(F)F)c(C(F)(F)F)c1-n1cc(-c2cncc(C(=O)NC3(C#N)CC3)c2)cn1 [Ic-71] | 100% | 80% | 100% | 100% | 100% | 100% | 100% | 100% | 100% | 100% | 80% | 100% |  |  |  |  | 
Cn1nc(C(F)(F)C(F)(F)F)c(C(F)(F)F)c1-n1cc(-c2ccc(Cl)c(C(=O)NC3CSC3)c2)cn1 [Ic-28] |  | 100% | 100% |  |  |  | 100% | 100% | 100% | 100% |  | 100% | 100% | 4.09 | 100% | 90% | 100%
Cn1nc(C(F)(F)C(F)(F)F)c(C(F)(F)F)c1-n1cc(-c2ccc(Cl)c(C(=O)NC3CC3C(F)(F)F)c2)cn1 (stereo not drawn) [Ic-181] | 100% |  |  | 100% | 100% | 100% |  |  |  |  |  |  |  | 4.26 |  |  | 
CSC1CC(NC(=O)c2cc(-c3cnn(-c4c(C(F)(F)F)c(C(F)(F)C(F)(F)F)nn4C)c3)ccc2Cl)C1 (stereo not drawn) [Ic-108] |  |  |  |  |  |  |  |  | 100% | 100% |  | 80% | 100% | 4.28 | 83% | 90% | 100%
